Read-outs that look alike come from different tables or passages of the source.
Legend:
[1] = test system: A(H3N2) virus neuraminidase (NA); format: biochemical, influenza A(H3N2) virus
[2] = test system: B/Victoria-lineage virus neuraminidase (NA); settings: cited from earlier work
[3] = test system: B/Yamagata-lineage virus neuraminidase (NA); design: method as in Gubareva et al., 2017a; Monto et al., 2006; settings: ref Gubareva et al., 2017a, Monto et al., 2006, cited from earlier work
[4] = test system: influenza; design: method as in Rossignol, 2018; settings: vs placebo, twice daily for 5 days, subjects enrolled within 36 h of symptom onset and followed up daily; ref Rossignol, 2018; cited from earlier work
[5] = test system: uncomplicated influenza; design: method as in Hayden, 2018; settings: phase III, given <48 h after onset of symptoms; ref Hayden, 2018; cited from earlier work
[6] = test system: uncomplicated influenza; settings: phase III, ref Epstein, 2017; cited from earlier work
[7] = frequency of reported adverse events similar to placebo; cited from earlier work
[8] = test system: influenza; design: method as in Haffizula et al., 2014; settings: 600 mg twice daily for five days, ref Haffizula et al., 2014, cited from earlier work
[9] = B/Victoria-lineage NA A245T, ref Leang et al., 2014
[10] = B/Victoria-lineage NA D197N, ref Gubareva et al., 1998, 2017b, Ison et al., 2006, Mishin et al., 2005

[H]/N=C(\N)N[C@H]1C=C(C(=O)O)O[C@@H]([C@H](OC)[C@H](O)CO)[C@@H]1NC(C)=O [Laninamivir]
IC50 fold-change compared to reference median IC50 values [1]: 17 fold

CCOC(=O)C1=C[C@@H](OC(CC)CC)[C@H](NC(C)=O)[C@@H](N)C1 [Oseltamivir]
inhibition phenotype associated with NA AAS (NI/RI/HRI) [2, 9]: RI (type B viruses 5- to 50-fold)
inhibition phenotype associated with NA AAS (NI/RI/HRI) [2, 10]: RI (type B viruses 5- to 50-fold)
fold increase in IC50 ([3]; B/Yamagata-lineage NA I221T): greater than 5 fold
improvement in median time to alleviation of symptoms [4]: 50 h

CCC(CC)[C@H](NC(C)=O)[C@@H]1[C@H](O)[C@@H](C(=O)O)C[C@H]1N=C(N)N [Peramivir]
IC50 fold-change compared to reference median IC50 values [1]: 5.3 fold
inhibition phenotype (NI/RI/HRI) [1]: NI (key: normal inhibition (NI) (type A viruses <10-fold; reduced inhibition (RI) (type A viruses 10- to 100-fold; highly reduced inhibition (HRI) (type A viruses >100-fold)
inhibition phenotype associated with NA AAS (NI/RI/HRI) [2, 9]: RI (type B viruses 5- to 50-fold)
inhibition phenotype associated with NA AAS (NI/RI/HRI) [2, 10]: RI (type B viruses 5- to 50-fold)
inhibition phenotype associated with NA AAS (NI/RI/HRI) ([2]; B/Victoria-lineage NA K360E, D432G or H273Y, ref WHO-AVWG NAI substitution table): RI (type B viruses 5- to 50-fold)
inhibition phenotype associated with NA AAS (NI/RI/HRI) ([3]; B/Yamagata-lineage NA I221V and I221T): RI (type B viruses 5- to 50-fold)

CC(=O)N[C@H]1[C@H]([C@H](O)[C@H](O)CO)OC(C(=O)O)=C[C@@H]1N=C(N)N [Zanamivir]
inhibition phenotype associated with NA AAS (NI/RI/HRI) [2, 9]: RI (type B viruses 5- to 50-fold)
inhibition phenotype associated with NA AAS (NI/RI/HRI) [2, 10]: RI (type B viruses 5- to 50-fold)

O=C1c2c(O)c(=O)ccn2N([C@@H]2c3ccccc3SCc3c2ccc(F)c3F)[C@@H]2COCCN12 [baloxavir, Baloxavir]
alleviation of symptoms faster than placebo [5]: 26.5 h

NC(=O)c1nc(F)c[nH]c1=O [favipiravir, Favipiravir]
reduction of median time to alleviation of symptoms compared to placebo [6]: 6 to 14 h

CC(=O)Oc1ccccc1C(=O)Nc1ncc([N+](=O)[O-])s1 [nitazoxanide, Nitazoxanide]
improvement in median time to alleviation of symptoms [4]: 50 h
tolerability, adverse events [7]: well tolerated
median improvement in alleviation of influenza symptoms ([8]; enrolled within 48 h of symptom onset, p = 0.0084): 22 h
virus shedding ([8]; p = 0.0006): significant reduction

Source: paper PMC6094047 (Antiviral Research, 2018)
